The nature of data set [1]: acute toxicity in mice (LD50). The settings on record: mouse, in vivo, male CD1 mice, three days' observation. Type of data set: in vivo, male mouse CD1 (Charles River). The protocol: (§1) The toxicity and acute symptomatologies of the compounds of the invention were determined in the male mouse CD1 (Charles River) in intravenous and oral manner. The LD50 were computed following three days' observation by the cumulative method of Reed & Muench (Am. J. Hyg. 27, 493, 1938).

In data set [2] the test system is noradrenaline (NA) recapture by brain synaptosomes. The experiment in a line: in vitro inhibition of noradrenaline uptake (recapture) by rat-brain synaptosomes. It is filed as biochemical. The settings on record: read-out: I50, dose inhibiting 50% of recapture by brain synaptosomes of noradrenaline (NA). From the text: (§2) The entire disclosure of Kannengiesser et al is relied on in this connection and incorporated herein by reference.

Data set [3] relates to dopamine (DA) recapture by brain synaptosomes. The experiment in a line: in vitro inhibition of dopamine uptake (recapture) by rat-brain synaptosomes. Type of data set: biochemical. The settings on record: read-out: I50, dose inhibiting 50% of recapture by brain synaptosomes of dopamine (DA).
From the text: as §2

For the next data set, the system named is 5-HTP hypermotility. The data set is described as follows: potentiation of 5-HTP hypermotility in mice. Type of data set: in vivo, male mouse CD1 (Charles River). The settings on record: 30 min after 5-HTP 150 mg/kg i.p., motility 45th-75th minute. The protocol: The effectiveness of the compounds of the present invention in blocking serotonine uptake also was shown using the potentiation test of 5-hydroxy tryptophane (5-HTP).
1, 11-1972. This test consists of looking for the potentiation of the hypermotility induced by 5-HTP. for high dosages the precursor will induce very characteristic hypermotility with jumps.
The animals are divided into groups of 25 mice and treated i.p. with 150 mg/kg of 5-HTP. The products to be tested are administered sub-cutaneously, 30 minutes after the 5-HTP, the control group receiving only the administrative vehicle. The overall motility of the animals is measured from the 45th to the 75th minute after (administration of) the 5-HTP. The results for the treated groups are shown in % increase in motility with respect to the control group.

Data set [4] deals with serotonin (5HT) recapture by brain synaptosomes. The data set is described as follows: in vitro inhibition of serotonin uptake (recapture) by rat-brain synaptosomes. The settings on record: for selectivity of action on cerebral serotonin: in words; for IC50: rat-brain synaptosomes, 5HT, read-out: I50, dose inhibiting 50% of recapture by brain synaptosomes of serotonin (5HT). It is filed as biochemical.
From the text: as §2

The next data set has as its system mice. The experiment in a line: acute toxicity in mice (LD50). It is filed as in vivo, male mouse CD1 (Charles River). The settings on record: intravenous, male CD1 mice, three days' observation; 4320 min. The procedure:
as §1

The mark [5] stands for this setting: intravenous, read-out: LD50 I.V.

Where two headings read alike, the source gives them in different places.

One may read the LD50 as the dose expected to kill half of the subjects tested. For the molecule `CN(C)CCCN1c2ccccc2CCc2ccc(Cl)cc21` [Clomipramine, reference compound], the LD50 at 72 h was determined as 45 mg/kg in data set [1] (setting [5]) and 380 mg/kg in data set [1] (oral, read-out: LD50 orally). Also, the IC50 in data set [2] came to 7 µM; in data set [3] it was 5 µM. For the same molecule, the “Potentiation of 5-HTP hypermotility, % change with respect to controls” value (“Potentiation … % change with respect to controls” for short) in the data set on 5-HTP hypermotility (15 mg/kg s.c.) is on record as “+190%”.
As for `O=C(CC1CCNCC1)c1c[nH]c2ccccc12` [Example 1, INDOLYL-3 (PIPERIDYL-4 METHYL) KETONE], the “selectivity of action on cerebral serotonin” value (“selectivity of action” for short) in data set [4] was “act more selectively than clomipramine”. The IC50 came out at 0.08 µM in data set [4], 20 µM in data set [2] and 65 µM in data set [3]. In the data set with mice, the “LD50 I.V.” value was 47 mg/kg.
As for `COc1ccc2[nH]cc(C(=O)CC3CCNCC3)c2c1` [Example 2, (METHOXY-5 INDOLYL-3) (PIPERIDYL-4 METHYL) KETONE], the IC50 in data set [4] came out at 0.65 µM; in data set [2], 160 µM; in data set [3] it was 70 µM. Besides, the LD50 at 72 h in data set [1] (setting [5]) is 44 mg/kg; in data set [1] (oral, read-out: LD50 orally), above 900 mg/kg.
In the case of `O=C(CC1CCNCC1)c1c[nH]c2ccc(Cl)cc12` [Example 3, (CHLORO-5 INDOLYL-3) (PIPERIDYL-4 METHYL) KETONE], the IC50 in data set [4] was 0.6 µM; in data set [2], 30 µM; in data set [3], 12 µM. The LD50 at 72 h in data set [1] (oral, read-out: LD50 orally) is 300 to 900 mg/kg.
With `Cn1cc(CCC2CCNCC2)c2ccccc21` [Example 9, [(METHYL-1 INDOLYL-3)-2 ETHYL]-4 PIPERIDINE], the “selectivity of action” value in data set [4] is recorded as “act more selectively than clomipramine”. Also, the IC50 in data set [4] was found to be 0.02 µM; in data set [2] it was 60 µM; in data set [3], 60 µM. In addition, the LD50 at 72 h in data set [1] (setting [5]) turned out to be 44 mg/kg; in data set [1] (oral, read-out: LD50 orally), 225 mg/kg. The “Potentiation … % change with respect to controls” value was “+134%” in the data set with 5-HTP hypermotility (5 mg/kg s.c.) and “+296%” in the data set with 5-HTP hypermotility (25 mg/kg s.c.).
For `c1ccc2c(CCC3CCNCC3)c[nH]c2c1` [Example 10, [(INDOLYL-3)-2 ETHYL]-4 PIPERIDINE], the “selectivity of action” value in data set [4] is “act more selectively than clomipramine”. The figures for the IC50 in data set [4], in data set [2] and in data set [3] were 0.04 µM, 8 µM and 4 µM, respectively. The LD50 at 72 h was 60 mg/kg in data set [1] (setting [5]) and 600 mg/kg in data set [1] (oral, read-out: LD50 orally). Besides, the “Potentiation … % change with respect to controls” value is on record as “+196%” with 5-HTP hypermotility (5 mg/kg s.c.) and “+262%” in the data set on 5-HTP hypermotility (25 mg/kg s.c.).
Take `c1ccc2c(CC3CCNCC3)c[nH]c2c1` [Example 11, (INDOLYL-3 METHYL) -4 PIPERIDINE]: the IC50 amounted to 0.15 µM in data set [4], 5 µM in data set [2] and 4 µM in data set [3]. Also, the LD50 at 72 h in data set [1] (setting [5]) was 57 mg/kg; in data set [1] (oral, read-out: LD50 orally) it was 225 mg/kg.
For `c1ccc2c(CCCC3CCNCC3)c[nH]c2c1` [Example 13, [(INDOLYL-3)-3 PROPYL]-4 PIPERIDINE], the “selectivity of action” value in data set [4] is recorded as “act more selectively than clomipramine”. The IC50 in data set [4] turned out to be 0.04 µM; in data set [2] it was 13 µM; in data set [3], 5.5 µM.

(Values after US4064255A, “Compositions containing new indole derivatives and their use in pharmacology” (Mar-Pha Societe d'Etudes et d'Exploitation de Marques, priority 1975, dated 1977).)
